Tested on: monocotyledonous and dicotyledonous weeds
Assay: Greenhouse post-emergence herbicidal test, effect rated visually against untreated controls
Type: in vivo
Protocol: Seeds or rhizome pieces of monocotyledonous and dicotyledonous weeds were placed in sandy loam soil in plastic pots, covered with soil and grown in a greenhouse under good growth conditions. Three weeks after seeding, the test plants were treated in the three-leaf stage. The compositions of the invention, formulated as wettable powders or as emulsion concentrates, were sprayed onto the green parts of the plants at various application rates of 600-800 l of water/ha (converted). The test plants were allowed to stand in the greenhouse under optimum growth conditions for about 3 to 4 weeks, and the effect of the preparations was then rated visually in comparison to untreated controls. The compositions according to the invention have good herbicidal activity against harmful plants of economic importance.

| Compound | herbicidal activity compared with a commercial formulation of bromoxynil-octanoate (300 and 600 g of AS/ha as microcapsule suspension (10%, Formulation Example 2), applied with a surfactant such as Genapol X 150, Genapol X 200, Sapogenat T130, T 200, T 300, T 400, T 500 or Genapol O 200 at 150, 300 and 600 g of surfactant/ha) | herbicidal activity compared with bromoxynil-Na applied with a surfactant having a lower content of ethylene oxide units (Genapol® 060, 6 ethylene oxide units) (bromoxynil-Na 300 g/ha in combination with a surfactant such as Genapol X 150, Genapol X 200, Sapogenat T130, T 200, T 300, T 400, T 500 or Genapol O 200 at 50, 100, 300 and 60 g/ha, post-emergence, three-leaf stage, rated after about 3 to 4 weeks) |
| --- | --- | --- |
| CCCCCCCC(=O)Oc1c(Br)cc(C#N)cc1Br [Bromoxynil-octanoate, bromoxynil-octanoate] | considerably higher |  |
| N#Cc1cc(Br)c([O-])c(Br)c1.[Na+] [bromoxynil-Na, bromoxynil-sodium] |  | considerably higher |

Source: patent publication US6693063B2, “Herbicidal composition” (Aventis CropScience GmbH, priority 2000, dated 2004)
